Laboratory results as given in the NIST ThermoML archive (doi:10.1016/j.jct.2013.12.025).

Test: xn = mol fraction of the nth substance listed
Conditions: 101 kPa, Liquid, Vibrating tube method

C=C[Si](C)(C)O[Si](C)(C)C=C [1,3-diethenyl-1,1,3,3-tetramethyldisiloxane] + COc1ccccc1
mass density [kg/m3]
Conditions | 283.15 K | 288.15 K | 293.15 K | 298.15 K | 303.15 K
x1 = 0.0501 | 987.07 | 982.37 | 977.74 | 973.02 | 968.3
x1 = 0.1 | 972.12 | 967.42 | 962.75 | 958.01 | 953.27
x1 = 0.15 | 958.3 | 953.58 | 948.89 | 944.14 | 939.38
x1 = 0.2004 | 945.4 | 940.66 | 935.96 | 931.19 | 926.42
x1 = 0.2499 | 933.62 | 928.87 | 924.15 | 919.36 | 914.57
x1 = 0.3 | 922.54 | 917.77 | 913.04 | 908.24 | 903.45
x1 = 0.35 | 912.24 | 907.47 | 902.73 | 897.91 | 893.1
x1 = 0.3997 | 902.67 | 897.88 | 893.12 | 888.29 | 883.45
x1 = 0.4499 | 893.63 | 888.81 | 884.04 | 879.2 | 874.35
x1 = 0.5001 | 885.14 | 880.31 | 875.53 | 870.68 | 865.82
x1 = 0.5499 | 877.24 | 872.4 | 867.62 | 862.75 | 857.88
x1 = 0.6 | 869.73 | 864.89 | 860.09 | 855.21 | 850.33
x1 = 0.6499 | 862.68 | 857.84 | 853.04 | 848.15 | 843.25
x1 = 0.6999 | 856.02 | 851.16 | 846.35 | 841.46 | 836.55
x1 = 0.7499 | 849.72 | 844.85 | 840.03 | 835.13 | 830.23
x1 = 0.8 | 843.72 | 838.85 | 834.02 | 829.11 | 824.19
x1 = 0.8499 | 838.07 | 833.19 | 828.35 | 823.44 | 818.52
x1 = 0.8998 | 832.69 | 827.81 | 822.98 | 818.06 | 813.14
x1 = 0.9499 | 827.56 | 822.67 | 817.83 | 812.91 | 808
x1 = 1 | 822.67 | 817.77 | 812.92 | 808 | 803.07
